Source: the supplement of paper PMC10307832

Experiments:
Assay in all cases: relative viability (nuclei count vs DMSO), 5 days (fraction); higher = more cells survive
[1] = tested on: NCI-H727
Procedure, shortened: (§1)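 A single step with final 0.05% Triton X-100, 1% formaldehyde and 1 ug/ml Hoechst fixed the cells and stained nuclei 5 days after treatment. Lung cancer cell lines in 1536-well plates had been treated by pin tool the day after seeding with one drug alone or a fixed anchor-drug dose plus five library-drug doses (not always all listed) in √10 steps, and nuclei were counted on 4× images. Relative viability is the ratio of nuclei in treated wells to nuclei in vehicle wells, taken as the median of duplicate plates.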

[2] = tested on: EMC-BAC-2
Procedure, shortened: as §1

[3] = tested on: PC-3 [JPC-3]
Procedure, shortened: as §1

[4] = tested on: NCI-H3122
Procedure, shortened: as §1

[5] = tested on: HARA
Procedure, shortened: as §1

[6] = tested on: NCI-H2228
Procedure, shortened: as §1

[7] = tested on: NCI-H1944
Procedure, shortened: as §1

[8] = tested on: NCI-H1792
Procedure, shortened: as §1

[9] = tested on: LK-2
Procedure, shortened: as §1

[10] = tested on: NCI-H322M
Procedure, shortened: as §1

[11] = tested on: ABC-1
Procedure, shortened: as §1

[12] = tested on: SK-MES-1
Procedure, shortened: as §1

[13] = tested on: LXF-289
Procedure, shortened: as §1

[14] = tested on: NCI-H596
Procedure, shortened: as §1

[15] = tested on: NCI-H2170
Procedure, shortened: as §1

[16] = tested on: A-427
Procedure, shortened: as §1

[17] = tested on: NCI-H2009
Procedure, shortened: as §1

[18] = tested on: NCI-H1993
Procedure, shortened: as §1

[19] = tested on: HOP-62
Procedure, shortened: as §1

[20] = tested on: SW 1573
Procedure, shortened: as §1

Cc1sc2c(c1C)C(c1ccc(Cl)cc1)=N[C@@H](CC(=O)OC(C)(C)C)c1nnc(C)n1-2 [JQ1] + Cc1nc(NC(=O)N2CCC[C@H]2C(N)=O)sc1-c1ccnc(C(C)(C)C(F)(F)F)c1 [Alpelisib] (partner 2 µM)
relative viability ([1]; first compound 0.04 µM): 0.525 | relative viability ([1]; first compound 0.1265 µM): 0.668 | relative viability ([1]; first compound 0.4 µM): 0.445 | relative viability ([1]; first compound 1.265 µM): 0.231 | relative viability ([1]; first compound 4 µM): 0.222 | relative viability ([2]; first compound 0.04 µM): 0.663 | relative viability ([2]; first compound 0.1265 µM): 0.749 | relative viability ([2]; first compound 0.4 µM): 0.576 | relative viability ([2]; first compound 1.265 µM): 0.439 | relative viability ([2]; first compound 4 µM): 0.386 | relative viability ([3]; first compound 0.04 µM): 1.06 | relative viability ([3]; first compound 0.1265 µM): 1.03 | relative viability ([3]; first compound 0.4 µM): 1.09 | relative viability ([3]; first compound 1.265 µM): 0.775 | relative viability ([3]; first compound 4 µM): 0.608 | relative viability ([4]; first compound 0.04 µM): 0.833 | relative viability ([4]; first compound 0.1265 µM): 0.771 | relative viability ([4]; first compound 0.4 µM): 0.963 | relative viability ([4]; first compound 1.265 µM): 0.661 | relative viability ([4]; first compound 4 µM): 0.663 | relative viability ([5]; first compound 0.04 µM): 0.915 | relative viability ([5]; first compound 0.1265 µM): 0.598 | relative viability ([5]; first compound 0.4 µM): 0.283 | relative viability ([5]; first compound 1.265 µM): 0.266 | relative viability ([5]; first compound 4 µM): 0.156 | relative viability ([6]; first compound 0.04 µM): 0.644 | relative viability ([6]; first compound 0.1265 µM): 0.602 | relative viability ([6]; first compound 0.4 µM): 0.504 | relative viability ([6]; first compound 1.265 µM): 0.497 | relative viability ([6]; first compound 4 µM): 0.451 | relative viability ([7]; first compound 0.04 µM): 0.709 | relative viability ([7]; first compound 0.1265 µM): 0.722 | relative viability ([7]; first compound 0.4 µM): 0.715 | relative viability ([7]; first compound 1.265 µM): 0.544 | relative viability ([7]; first compound 4 µM): 0.397 | relative viability ([8]; first compound 0.04 µM): 0.702 | relative viability ([8]; first compound 0.4 µM): 0.722 | relative viability ([8]; first compound 1.265 µM): 0.411 | relative viability ([8]; first compound 4 µM): 0.364 | relative viability ([9]; first compound 0.04 µM): 1.05 | relative viability ([9]; first compound 0.1265 µM): 1.06 | relative viability ([9]; first compound 0.4 µM): 0.55 | relative viability ([9]; first compound 1.265 µM): 0.237 | relative viability ([9]; first compound 4 µM): 0.16 | relative viability ([10]; first compound 0.04 µM): 0.752 | relative viability ([10]; first compound 0.1265 µM): 0.77 | relative viability ([10]; first compound 0.4 µM): 0.862 | relative viability ([10]; first compound 1.265 µM): 0.68 | relative viability ([10]; first compound 4 µM): 0.587 | relative viability ([11]; first compound 0.04 µM): 1.07 | relative viability ([11]; first compound 0.1265 µM): 1.04 | relative viability ([11]; first compound 0.4 µM): 0.829 | relative viability ([11]; first compound 1.265 µM): 0.424 | relative viability ([11]; first compound 4 µM): 0.465 | relative viability ([12]; first compound 0.04 µM): 0.769 | relative viability ([12]; first compound 0.1265 µM): 0.68 | relative viability ([12]; first compound 0.4 µM): 0.733 | relative viability ([12]; first compound 1.265 µM): 0.456 | relative viability ([12]; first compound 4 µM): 0.27 | relative viability ([13]; first compound 0.04 µM): 1.02 | relative viability ([13]; first compound 0.1265 µM): 0.983 | relative viability ([13]; first compound 0.4 µM): 0.97 | relative viability ([13]; first compound 1.265 µM): 0.718 | relative viability ([13]; first compound 4 µM): 0.634 | relative viability ([14]; first compound 0.04 µM): 0.481 | relative viability ([14]; first compound 0.1265 µM): 0.499 | relative viability ([14]; first compound 0.4 µM): 0.437 | relative viability ([14]; first compound 1.265 µM): 0.41 | relative viability ([14]; first compound 4 µM): 0.343 | relative viability ([15]; first compound 0.04 µM): 0.811 | relative viability ([15]; first compound 0.1265 µM): 0.801 | relative viability ([15]; first compound 0.4 µM): 0.689 | relative viability ([15]; first compound 1.265 µM): 0.403 | relative viability ([15]; first compound 4 µM): 0.34 | relative viability ([16]; first compound 0.04 µM): 1.15 | relative viability ([16]; first compound 0.1265 µM): 1.05 | relative viability ([16]; first compound 0.4 µM): 1.11 | relative viability ([16]; first compound 1.265 µM): 0.967 | relative viability ([16]; first compound 4 µM): 0.731 | relative viability ([17]; first compound 0.04 µM): 1.09 | relative viability ([17]; first compound 0.1265 µM): 0.968 | relative viability ([17]; first compound 0.4 µM): 0.697 | relative viability ([17]; first compound 1.265 µM): 0.32 | relative viability ([17]; first compound 4 µM): 0.268 | relative viability ([18]; first compound 0.04 µM): 0.705 | relative viability ([18]; first compound 0.1265 µM): 0.653 | relative viability ([18]; first compound 0.4 µM): 0.667 | relative viability ([18]; first compound 1.265 µM): 0.665 | relative viability ([18]; first compound 4 µM): 0.665 | relative viability ([19]; first compound 0.04 µM): 1.2 | relative viability ([19]; first compound 0.1265 µM): 0.728 | relative viability ([19]; first compound 0.4 µM): 0.332 | relative viability ([19]; first compound 1.265 µM): 0.182 | relative viability ([19]; first compound 4 µM): 0.09 | relative viability ([20]; first compound 0.04 µM): 0.808 | relative viability ([20]; first compound 0.1265 µM): 0.702 | relative viability ([20]; first compound 0.4 µM): 0.714 | relative viability ([20]; first compound 1.265 µM): 0.439 | relative viability ([20]; first compound 4 µM): 0.383
